Test results: patent US7713994B2 (Wyeth LLC, priority 2005, dated 2010)
Where two headings read alike, the source gives them in different places.

Key:
[1] = test system: HCT-116; assay: Cytotoxicity assay (SRB), HCT-116; format: cell-based; settings: Homo sapiens, HCT-116, 72 h, read-out: In Vitro Cellular Activity IC50 HCT116
Method in brief: (§1)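 Overnight-seeded monolayers (4000–12000 cells/well by line) receive compound in 5% FBS medium at 37 °C, 7% CO2. After 3 d, or 6 d for BT474, cellular protein is fixed with cold TCA, stained with SRB and read at 540 nm against untreated wells.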

[2] = test system: BT474; assay: Cytotoxicity assay (SRB), BT474; format: cell-based; settings: Homo sapiens, BT-474, 144 h, read-out: In Vitro Cellular Activity IC50 BT474
Method in brief: as §1

[3] = molecular target: T1, cyclin E/CDK2 enzyme (Homo sapiens, UniProt P24941); assay: CDK2 ELISA kinase assay (phospho-Rb ser 795 detection); format: biochemical
T1 construct: made in house; host or cells: Sf9 insect cells, recombinant baculovirus
Method in brief: (§2)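 Wells were coated overnight with GST-Rb C-terminal fragment, then blocked. Compound (10 ug/ml final) and cyclin/CDK enzyme from baculovirus-infected Sf9 cells with 200 μM ATP reacted 1 h at 30° C. Ser795 phosphorylation was detected by ELISA at 450 nm.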

[4] = molecular target: T2, cyclin B/CDK1 enzyme (Homo sapiens, UniProt P06493); assay: CDK1 ELISA kinase assay (phospho-Rb ser 795 detection); format: biochemical
T2 construct: purchased New England BioLabs; host or cells: Sf9 insect cells, recombinant baculovirus
T2 sequence (P06493 whole entry): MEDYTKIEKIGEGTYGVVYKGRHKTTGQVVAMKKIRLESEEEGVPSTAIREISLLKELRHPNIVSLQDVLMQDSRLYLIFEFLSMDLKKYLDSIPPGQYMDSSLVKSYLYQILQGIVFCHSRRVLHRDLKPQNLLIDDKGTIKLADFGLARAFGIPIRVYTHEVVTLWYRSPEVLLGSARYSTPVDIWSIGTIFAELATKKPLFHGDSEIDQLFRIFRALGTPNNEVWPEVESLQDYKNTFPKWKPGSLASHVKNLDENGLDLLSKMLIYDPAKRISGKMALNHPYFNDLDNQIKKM
T2 sequence (P14635 whole entry partner): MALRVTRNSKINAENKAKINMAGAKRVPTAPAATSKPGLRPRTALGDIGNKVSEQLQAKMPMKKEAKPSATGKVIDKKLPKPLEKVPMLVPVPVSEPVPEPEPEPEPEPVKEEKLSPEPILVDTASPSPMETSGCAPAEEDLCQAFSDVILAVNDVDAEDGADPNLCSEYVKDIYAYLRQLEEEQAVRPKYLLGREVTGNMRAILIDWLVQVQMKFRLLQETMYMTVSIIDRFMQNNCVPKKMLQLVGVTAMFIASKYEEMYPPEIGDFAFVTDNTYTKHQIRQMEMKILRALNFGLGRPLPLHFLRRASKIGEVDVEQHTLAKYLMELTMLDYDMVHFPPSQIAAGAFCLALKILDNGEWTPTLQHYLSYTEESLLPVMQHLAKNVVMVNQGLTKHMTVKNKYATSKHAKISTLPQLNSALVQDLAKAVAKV
Method in brief: as §2

[5] = test system: LoVo; assay: Cytotoxicity assay (SRB), LoVo; format: cell-based; settings: Homo sapiens, LoVo, 72 h, read-out: In Vitro Cellular Activity IC50 LOVO
Method in brief: as §1

[6] = test system: MCF-7; assay: Cytotoxicity assay (SRB), MCF-7; format: cell-based; settings: Homo sapiens, MCF7, 72 h, read-out: In Vitro Cellular Activity IC50 MCF-7
Method in brief: as §1

[7] = molecular target: T3, cyclin D1/cdk 4 enzyme (Homo sapiens, UniProt P11802); assay: CDK4 ELISA kinase assay (phospho-Rb ser 795 detection); format: biochemical
T3 construct: made in house; host or cells: Sf9 insect cells, recombinant baculovirus
T3 sequence (P11802 whole entry, species assumed): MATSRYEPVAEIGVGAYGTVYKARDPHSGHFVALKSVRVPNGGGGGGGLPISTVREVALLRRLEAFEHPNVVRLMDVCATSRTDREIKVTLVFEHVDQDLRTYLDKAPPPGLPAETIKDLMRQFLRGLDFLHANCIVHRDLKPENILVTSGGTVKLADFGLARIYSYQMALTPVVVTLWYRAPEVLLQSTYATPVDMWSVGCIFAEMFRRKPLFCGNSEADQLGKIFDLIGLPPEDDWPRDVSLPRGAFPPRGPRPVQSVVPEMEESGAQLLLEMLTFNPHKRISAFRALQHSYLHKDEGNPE
T3 sequence (P24385 whole entry partner, species assumed): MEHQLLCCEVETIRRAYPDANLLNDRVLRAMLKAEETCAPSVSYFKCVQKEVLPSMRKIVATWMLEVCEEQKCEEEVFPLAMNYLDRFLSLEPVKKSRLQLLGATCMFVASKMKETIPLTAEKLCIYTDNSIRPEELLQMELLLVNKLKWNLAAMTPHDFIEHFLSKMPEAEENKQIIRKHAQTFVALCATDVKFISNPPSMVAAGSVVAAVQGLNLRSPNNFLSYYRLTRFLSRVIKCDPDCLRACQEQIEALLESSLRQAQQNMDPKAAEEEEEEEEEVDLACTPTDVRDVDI
Method in brief: as §2

[8] = In Vitro Enzyme Assays, read-out: CDK2 IC50
[9] = In Vitro Enzyme Assays, read-out: CDK1 IC50
[10] = In Vitro Enzyme Assays, 200 μM ATP, read-out: CDK4 IC50
[11] = In Vitro Enzyme Assay, cyclin E/CDK2, read-out: CDK2 IC50
[12] = In Vitro Enzyme Assay, cyclin B/CDK1, read-out: CDK1 IC50
[13] = In Vitro Enzyme Assay, cyclin D1/cdk 4, read-out: CDK4 IC50

| IC50 [3, 8] [µM] | IC50 [4, 9] [µM] | IC50 [7, 10] [µM] | IC50 [3, 11] [µM] | IC50 [4, 12] [µM] | IC50 [7, 13] [µM] | Compound | IC50 ([1]; HCT116 cells, SRB, three days) [µM] | IC50 ([2]; BT474 cells, SRB, 6 days) [µM] | IC50 ([5]; LoVo cells, SRB, three days) [µM] | IC50 ([6]; MCF-7 cells, SRB, three days) [µM] | IC50 ([1]; HCT116 cells, 3 days, SRB) [µM] | IC50 ([2]; BT474 cells, 6 days, SRB) [µM] | IC50 ([5]; LoVo cells, 3 days, SRB) [µM] | IC50 ([6]; MCF-7 cells, 3 days, SRB) [µM] | IC50 [1] [µM] | IC50 [2] [µM] | IC50 [5] [µM] | IC50 [6] [µM] |
| --- | --- | --- | --- | --- | --- | --- | --- | --- | --- | --- | --- | --- | --- | --- | --- | --- | --- | --- |
| – | – | – | 12.1 | 11.8 | 0.02 | O=C1NC(=O)c2ccc(N3CCCC3)cc2/C1=C/NCc1ccc(O)c(O)c1 [Example 609, 4-[(3,4-Dihydroxy-benzylamino)-methylene]-6-pyrrolidin-1-yl-4H-isoquinoline-1,3-dione] | – | – | – | – | 30.6 | 18.3 | 19.1 | 13.6 | – | – | – | – |
| – | – | – | 21.1 | > 50 | 0.84 | CN(C)Cc1ccc(C=Cc2ccc3c(c2)C(=CNCc2ccc(O)c(O)c2)C(=O)NC3=O)cc1 [Example 736, 4-[(3,4-Dihydroxy-benzylamino)-methylene]-6-[2-(4-dimethylaminomethyl-phenyl)-vinyl]-4H-isoquinoline-1,3-dione] | – | – | – | – | 20.5 | 39.9 | 11.5 | > 50 | – | – | – | – |
| > 50 | > 50 | 2.7 | – | – | – | CN1CCCN(c2ccc(N/C=C3\C(=O)NC(=O)c4ccc(Br)cc43)cc2)CC1 [Example 232, (4Z)-6-Bromo-4-({[4-(4-methyl-1,4-diazepan-1-yl)phenyl]amino}methylene)isoquinoline-1,3(2H,4H)-dione] | 1.4 | 3.3 | 3.7 | 2.1 | – | – | – | – | – | – | – | – |
| 4.5 | > 50 | 29 | – | – | – | CN(C)NC(=O)c1ccc(N/C=C2\C(=O)NC(=O)c3ccc(Br)cc32)cc1 [Example 280, 4-{[(Z)-(6-Bromo-1,3-dioxo-2,3-dihydroisoquinolin-4(1H)-ylidene)methyl]amino}-N′,N′-dimethylbenzohydrazide] | 21 | 28 | 32 | 17 | – | – | – | – | – | – | – | – |
| 22.6 | > 50 | 7.8 | – | – | – | C/C=C/C(=O)Nc1ccc(CN/C=C2\C(=O)NC(=O)c3ccc(I)cc32)cc1OC(=O)/C=C/C [Example 343, 2-[(2E)-But-2-enoylamino]-5-({[(Z)-(6-iodo-1,3-dioxo-2,3-dihydroisoquinolin-4(1H)-ylidene)methyl]amino}methyl)phenyl (2E)-but-2-enoate] | 12 | 7.7 | 9.8 | 14 | – | – | – | – | – | – | – | – |

The remaining lines, values behind:

| Compound | IC50 [3, 8] [µM] | IC50 [4, 9] [µM] | IC50 [7, 10] [µM] | IC50 [3, 11] [µM] | IC50 [4, 12] [µM] | IC50 [7, 13] [µM] | IC50 ([1]; HCT116 cells, SRB, three days) [µM] | IC50 ([2]; BT474 cells, SRB, 6 days) [µM] | IC50 ([5]; LoVo cells, SRB, three days) [µM] | IC50 ([6]; MCF-7 cells, SRB, three days) [µM] | IC50 ([1]; HCT116 cells, 3 days, SRB) [µM] | IC50 ([2]; BT474 cells, 6 days, SRB) [µM] | IC50 ([5]; LoVo cells, 3 days, SRB) [µM] | IC50 ([6]; MCF-7 cells, 3 days, SRB) [µM] | IC50 [1] [µM] | IC50 [2] [µM] | IC50 [5] [µM] | IC50 [6] [µM] |
| --- | --- | --- | --- | --- | --- | --- | --- | --- | --- | --- | --- | --- | --- | --- | --- | --- | --- | --- |
| O=C1NC(=O)c2ccc(I)cc2/C1=C/NCc1ccc(NC(=O)c2ccccc2)c(O)c1 [Example 334, N-[2-Hydroxy-4-({[(Z)-(6-iodo-1,3-dioxo-2,3-dihydroisoquinolin-4(1H)-ylidene)methyl]amino}methyl)phenyl]benzamide] | 7.8 | > 50 | 0.07 | – | – | – | 7.1 | 7.2 | 5.9 | 7.9 | – | – | – | – | – | – | – | – |
| CN(CCN1CCCC1)c1ccc(N/C=C2\C(=O)NC(=O)c3ccc(Br)cc32)cc1 [Example 255, (4Z)-6-Bromo-4-[({4-[methyl(2-pyrrolidin-1-ylethyl)amino]phenyl}amino)methylene]isoquinoline-1,3(2H,4H)-dione] | > 50 | > 50 | 2.5 | – | – | – | 3.1 | 7.9 | 3.8 | 3.6 | – | – | – | – | – | – | – | – |
| O=C1NC(=O)c2ccc(Br)cc2/C1=C/Nc1ccc(CN2CCC[C@H]2CO)cc1 (stereo in doubt) [Example 437, 6-Bromo-4-{[4-(2-hydroxymethyl-pyrrolidin-1-ylmethyl)-phenylamino]-methylene}-4H-isoquinoline-1,3-dione] | 36.3 | > 50 | 0.75 | – | – | – | – | – | – | – | 3.7 | 2.9 | 3.6 | 3.1 | – | – | – | – |
| CCCCOc1ccc(CN/C=C2\C(=O)NC(=O)c3ccc(Br)cc32)cc1O [Example 148, (4Z)-6-Bromo-4-{[(4-butoxy-3-hydroxybenzyl)amino]methylene}isoquinoline-1,3(2H,4H)-dione] | 31.7 | > 50 | 0.44 | – | – | – | 18 | 16 | 22 | 25 | – | – | – | – | – | – | – | – |
| O=C1NC(=O)c2ccc(-c3ccsc3)cc2/C1=C/Nc1ccc(C2CC=CCN2)cc1 (centres unmarked) [Example 404, 4-{[4-(1,2,3,6-Tetrahydro-pyridin-2-yl)-phenylamino]-methylene}-6-thiophen-3-yl-4H-isoquinoline-1,3-dione] | 14.4 | 25.3 | 0.1 | – | – | – | – | – | – | – | 1.6 | 3.1 | 3.1 | 7.3 | – | – | – | – |
| O=C1NC(=O)c2ccc(-c3ccsc3)cc2/C1=C/Nc1ccc(CN2CCC[C@@H]2CO)cc1 (stereo in doubt) [Example 421, 4-{[4-(2-Hydroxymethyl-pyrrolidin-1-ylmethyl)-phenylamino]-methylene}-6-thiophen-3-yl-4H-isoquinoline-1,3-dione] | > 50 | > 50 | 0.05 | – | – | – | – | – | – | – | 2.6 | 2.9 | 2.7 | 3.8 | – | – | – | – |
| O=C1NC(=O)c2ccc(-c3ccccc3)cc2C1=CNCc1ccc(O)c(O)c1 [Example 620, 4-[(3,4-Dihydroxy-benzylamino)-methylene]-6-phenyl-4H-isoquinoline-1,3-dione] | – | – | – | 5.8 | 32.5 | 0.05 | – | – | – | – | 11.7 | 15.5 | 11.5 | 11 | – | – | – | – |
| CN(C)CCN(C)c1ccc(N/C=C2\C(=O)NC(=O)c3ccc(Br)cc32)cc1 [Example 231, (4Z)-6-Bromo-4-[({4-[[2-(dimethylamino)ethyl](methyl)amino]phenyl}amino)methylene]isoquinoline-1,3(2H,4H)-dione] | > 50 | 29.6 | 3.6 | – | – | – | 4.1 | 8.3 | 10 | 2.4 | – | – | – | – | – | – | – | – |
| CN1CCN(c2ccc(NC=C3C(=O)NC(=O)c4ccc(-c5ccc(CO)cc5)cc43)cc2)CC1 [Example 808, 6-(4-Hydroxymethyl-phenyl)-4-{[4-(4-methyl-piperazin-1-yl)-phenylamino]-methylene}-4H-isoquinoline-1,3-dione] | – | – | – | > 50 | > 50 | 0.38 | – | – | – | – | 1.6 | 8 | 5.4 | 8.6 | – | – | – | – |
| CCCOc1ccc(CN/C=C2\C(=O)NC(=O)c3ccc(-c4cccc(F)c4)cc32)cc1O [Example 193, (4Z)-6-(3-Fluorophenyl)-4-{[(3-hydroxy-4-propoxybenzyl)amino]methylene}-isoquinoline-1,3(2H,4H)-dione] | > 50 | > 50 | 1.4 | – | – | – | 16 | > 50 | > 50 | 4.4 | – | – | – | – | – | – | – | – |
| C=CC(=O)Nc1ccc(CN/C=C2\C(=O)NC(=O)c3ccc(Br)cc32)cc1 [Example 322, N-[4-({[(Z)-(6-Bromo-1,3-dioxo-2,3-dihydroisoquinolin-4(1H)-ylidene)methyl]amino}methyl)phenyl]acrylamide] | 7.8 | > 50 | > 50 | – | – | – | – | – | – | – | – | – | – | – | 0.25 | 0.11 | 0.24 | 0.24 |
| CC(C)C(=O)Nc1ccc(CN/C=C2\C(=O)NC(=O)c3ccc(I)cc32)cc1O [Example 335, N-[2-Hydroxy-4-({[(Z)-(6-iodo-1,3-dioxo-2,3-dihydroisoquinolin-4(1H)-ylidene)methyl]amino}methyl)phenyl]-2-methylpropanamide] | 1.4 | > 50 | 0.02 | – | – | – | 5 | 5.1 | 4.5 | 5.9 | – | – | – | – | – | – | – | – |
